Experiment: xn = mol fraction of the nth substance listed
Details: 101 kPa, Liquid; for viscosity: Capillary tube (Ostwald / Ubbelohde) method; for speed of sound: Linear variable-path acoustic interferometer; for mass density: Pycnometric method

CC#N [acetonitrile] + Cc1ccccc1
Details | mass density, 298.15 K [kg/m3] | mass density, 303.15 K [kg/m3] | mass density, 308.15 K [kg/m3] | speed of sound, 298.15 K [m/s] | speed of sound, 303.15 K [m/s] | speed of sound, 308.15 K [m/s] | viscosity, 298.15 K [mPa·s] | viscosity, 303.15 K [mPa·s] | viscosity, 308.15 K [mPa·s]
x2 = 0 | 775.3 | 769.9 | 764.7 | 1271.3 | 1251.9 | 1231.7 | 0.3696 | 0.3554 | 0.3414
x2 = 0.0506 | 784.6 | 779 | 773.6 | 1273.8 | 1253.9 | 1233.4 | 0.3809 | 0.3653 | 0.3503
x2 = 0.1082 | 794.1 | 788.4 | 782.9 | 1276.5 | 1256.3 | 1235.5 | 0.394 | 0.3772 | 0.3609
x2 = 0.1704 | 803.3 | 797.5 | 792 | 1279.3 | 1259 | 1238 | 0.408 | 0.39 | 0.3729
x2 = 0.2421 | 812.6 | 806.6 | 801.4 | 1282.4 | 1261.8 | 1240.9 | 0.4241 | 0.4045 | 0.3864
x2 = 0.3228 | 821.8 | 815.7 | 810.5 | 1285.7 | 1265 | 1244.3 | 0.4423 | 0.4211 | 0.4017
x2 = 0.4163 | 830.7 | 824.7 | 819.7 | 1289.2 | 1268.2 | 1247.8 | 0.4625 | 0.44 | 0.4193
x2 = 0.5288 | 839.6 | 833.8 | 828.7 | 1292 | 1270.9 | 1250.7 | 0.486 | 0.4614 | 0.4389
x2 = 0.6577 | 847.5 | 841.9 | 836.9 | 1294.5 | 1273.6 | 1253.5 | 0.5098 | 0.4834 | 0.4591
x2 = 0.8089 | 854.6 | 849.3 | 844.6 | 1296.7 | 1275.9 | 1256.3 | 0.5353 | 0.5069 | 0.4817

CCCC#N [butanenitrile] + Cc1ccccc1
Details | mass density, 298.15 K [kg/m3] | mass density, 303.15 K [kg/m3] | mass density, 308.15 K [kg/m3] | speed of sound, 298.15 K [m/s] | speed of sound, 303.15 K [m/s] | speed of sound, 308.15 K [m/s] | viscosity, 298.15 K [mPa·s] | viscosity, 303.15 K [mPa·s] | viscosity, 308.15 K [mPa·s]
x2 = 0 | 784.7 | 780.3 | 775.9 | 1271.4 | 1252.2 | 1233.9 | 0.5463 | 0.5255 | 0.5049
x2 = 0.082 | 792.7 | 788.1 | 783.6 | 1276.3 | 1256.5 | 1237.9 | 0.5484 | 0.5265 | 0.5053
x2 = 0.1673 | 800.8 | 796.1 | 791.5 | 1280.6 | 1260.4 | 1241.7 | 0.5504 | 0.5276 | 0.5058
x2 = 0.2537 | 808.6 | 803.8 | 799.2 | 1284.9 | 1264.5 | 1245.4 | 0.5522 | 0.5287 | 0.5064
x2 = 0.3488 | 816.8 | 812 | 807.4 | 1289.2 | 1268.6 | 1249.3 | 0.5541 | 0.5299 | 0.5069
x2 = 0.4436 | 824.5 | 819.7 | 815.1 | 1292.6 | 1272.2 | 1252.5 | 0.5559 | 0.5309 | 0.5074
x2 = 0.5435 | 832.2 | 827.3 | 822.8 | 1294.9 | 1274.6 | 1254.7 | 0.5576 | 0.5317 | 0.5079
x2 = 0.651 | 839.8 | 834.9 | 830.4 | 1296.7 | 1276.5 | 1256.5 | 0.5592 | 0.5324 | 0.5082
x2 = 0.759 | 846.9 | 841.9 | 837.4 | 1298 | 1277.4 | 1257.8 | 0.5607 | 0.5329 | 0.5084
x2 = 0.8771 | 854.1 | 849.1 | 844.6 | 1298.7 | 1278.3 | 1259 | 0.5622 | 0.5337 | 0.5088

CCC#N [propanenitrile] + Cc1ccccc1
Details | mass density, 298.15 K [kg/m3] | mass density, 303.15 K [kg/m3] | mass density, 308.15 K [kg/m3] | speed of sound, 298.15 K [m/s] | speed of sound, 303.15 K [m/s] | speed of sound, 308.15 K [m/s] | viscosity, 298.15 K [mPa·s] | viscosity, 303.15 K [mPa·s] | viscosity, 308.15 K [mPa·s]
x2 = 0 | 775.4 | 769.9 | 765.2 | 1252.4 | 1232.7 | 1213.7 | 0.4107 | 0.3991 | 0.3822
x2 = 0.0668 | 784.4 | 778.8 | 773.9 | 1257.2 | 1237 | 1217.6 | 0.4222 | 0.4087 | 0.3907
x2 = 0.1397 | 793.6 | 787.9 | 783 | 1262.2 | 1241.7 | 1222 | 0.4346 | 0.4194 | 0.4004
x2 = 0.2164 | 802.6 | 796.8 | 791.9 | 1267.3 | 1246.5 | 1226.7 | 0.4476 | 0.4306 | 0.4106
x2 = 0.3011 | 811.7 | 806 | 801.1 | 1272.9 | 1252 | 1232 | 0.4617 | 0.4432 | 0.422
x2 = 0.3905 | 820.5 | 814.9 | 810.1 | 1278.2 | 1257.1 | 1237.1 | 0.4765 | 0.4561 | 0.4341
x2 = 0.4917 | 829.4 | 823.9 | 819.1 | 1283 | 1262.1 | 1242.1 | 0.4927 | 0.4702 | 0.4475
x2 = 0.5989 | 837.7 | 832.3 | 827.6 | 1287.1 | 1266.2 | 1246.3 | 0.5082 | 0.4842 | 0.4606
x2 = 0.7174 | 845.7 | 840.5 | 835.8 | 1291.2 | 1270.4 | 1250.5 | 0.5247 | 0.4989 | 0.4748
x2 = 0.854 | 853.7 | 848.6 | 844 | 1295.2 | 1274.5 | 1255.2 | 0.5434 | 0.5158 | 0.4911

Source: the NIST ThermoML archive (doi:10.1016/j.tca.2009.10.001)
